SMILES strings stand for the structures. Like-named read-outs stand apart in the source and are kept apart here. Bounds are passed on as bounds.

Format in all cases: cell-based
One assay has as its target T1, hGCGR (Homo sapiens, UniProt P47871).
T1 construct: expressed in transfected cells
As to the kind of experiment: Functional cAMP formation (HTRF) in HEK-293 clonal cells expressing hGCGR, 0.1% bovine casein, without or with 1.0% human serum albumin. As to conditions: 37° C. In outline: (§1)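 Cells were stimulated with peptide for 30 min at 37° C, then intracellular cAMP was measured by competitive HTRF (665/620 nm ratio) and converted to nM using a cAMP standard curve. Relative EC50 and Emax came from four-parameter logistic fits of percent maximal response against peptide concentration.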

The target of a further assay is T2, hGIPR (Homo sapiens, UniProt P48546).
T2 construct: expressed in transfected cells
T2 sequence (P48546 22-466): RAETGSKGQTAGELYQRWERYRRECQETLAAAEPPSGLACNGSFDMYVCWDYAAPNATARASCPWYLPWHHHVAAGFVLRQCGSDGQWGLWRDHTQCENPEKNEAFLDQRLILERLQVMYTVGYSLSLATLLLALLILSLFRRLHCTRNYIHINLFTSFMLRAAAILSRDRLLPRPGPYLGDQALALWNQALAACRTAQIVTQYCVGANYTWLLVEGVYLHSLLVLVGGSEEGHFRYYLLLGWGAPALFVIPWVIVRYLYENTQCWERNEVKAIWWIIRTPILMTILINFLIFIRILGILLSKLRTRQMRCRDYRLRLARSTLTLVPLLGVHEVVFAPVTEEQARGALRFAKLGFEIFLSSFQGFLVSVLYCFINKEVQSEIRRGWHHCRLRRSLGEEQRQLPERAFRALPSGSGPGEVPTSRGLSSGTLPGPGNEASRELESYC
As to the kind of experiment: Functional cAMP formation (HTRF) in HEK-293 clonal cells expressing hGIPR, 0.1% bovine casein, without or with 1.0% human serum albumin. As to conditions: 37° C. In outline:
as §1

A further assay addresses hGLP-1R (Homo sapiens, UniProt P43220). As to the kind of experiment: Functional cAMP formation (HTRF) in HEK-293 clonal cells expressing hGLP-1R, 0.1% bovine casein, without or with 1.0% human serum albumin. Set-up: expressed in transfected cells. Conditions: for Emax: percent of maximal response to GLP-1(7-36)NH2, arithmetic mean; for EC50: cAMP. An outline of the steps: as §1

Chain of hGLP-1R (P43220 24-463): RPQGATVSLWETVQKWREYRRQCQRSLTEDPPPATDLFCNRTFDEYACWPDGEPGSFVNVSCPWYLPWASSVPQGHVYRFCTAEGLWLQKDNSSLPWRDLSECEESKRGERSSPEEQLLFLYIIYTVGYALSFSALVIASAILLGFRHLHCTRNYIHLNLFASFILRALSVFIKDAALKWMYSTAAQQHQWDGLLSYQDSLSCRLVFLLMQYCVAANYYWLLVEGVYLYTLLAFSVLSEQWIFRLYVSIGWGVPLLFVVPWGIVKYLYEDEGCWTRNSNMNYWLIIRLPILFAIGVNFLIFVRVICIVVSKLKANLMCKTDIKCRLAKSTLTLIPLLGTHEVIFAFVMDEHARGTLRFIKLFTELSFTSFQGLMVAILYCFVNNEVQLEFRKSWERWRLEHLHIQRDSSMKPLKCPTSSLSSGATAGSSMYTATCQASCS
T1 sequence (P47871 26-477): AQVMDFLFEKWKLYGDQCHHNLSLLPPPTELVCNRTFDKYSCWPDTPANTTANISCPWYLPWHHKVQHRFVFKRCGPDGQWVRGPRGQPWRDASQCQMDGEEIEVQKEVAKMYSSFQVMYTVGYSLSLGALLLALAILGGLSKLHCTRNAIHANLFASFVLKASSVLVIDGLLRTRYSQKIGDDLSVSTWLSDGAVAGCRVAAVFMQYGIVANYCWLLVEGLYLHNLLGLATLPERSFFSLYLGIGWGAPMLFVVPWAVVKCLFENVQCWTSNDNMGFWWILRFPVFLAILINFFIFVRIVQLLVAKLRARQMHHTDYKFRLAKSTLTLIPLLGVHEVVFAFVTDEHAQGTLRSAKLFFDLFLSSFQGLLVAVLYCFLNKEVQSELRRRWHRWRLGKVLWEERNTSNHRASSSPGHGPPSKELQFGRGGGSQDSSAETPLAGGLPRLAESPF

On to `CC[C@H](C)[C@H](NC(=O)[C@H](CCCN)NC(=O)[C@H](CC(=O)O)NC(=O)[C@H](CC(C)C)NC(=O)[C@](C)(CC(C)C)NC(=O)[C@@H](NC(=O)C(C)(C)NC(=O)[C@H](Cc1ccncc1)NC(=O)[C@H](CC(=O)O)NC(=O)[C@H](CO)NC(=O)[C@@H](NC(=O)[C@](C)(Cc1ccccc1F)NC(=O)[C@@H](NC(=O)CNC(=O)[C@H](CCC(=O)O)NC(=O)C(C)(C)NC(=O)[C@@H](N)Cc1ccc(O)cc1)[C@@H](C)O)[C@@H](C)O)[C@@H](C)CC)C(=O)N[C@@H](C)C(=O)N[C@@H](CCC(N)=O)C(=O)NC(C)(C)C(=O)N[C@@H](CCC(=O)O)C(=O)N[C@@H](Cc1ccccc1)C(=O)N[C@H](C(=O)N[C@@H](CCCCNC(=O)COCCOCCNC(=O)COCCOCCNC(=O)COCCOCCNC(=O)CC[C@H](NC(=O)CCCCCCCCCCCCC(=O)O)C(=O)O)C(=O)N[C@@](C)(Cc1ccc(O)cc1)C(=O)N[C@@H](CC(C)C)C(=O)N[C@H](C(=O)N[C@@H](CCCCNC(=O)COCCOCCNC(=O)COCCOCCNC(=O)COCCOCCNC(=O)CC[C@H](NC(=O)CCCCCCCCCCCCC(=O)O)C(=O)O)C(=O)NCC(=O)NCC(=O)N1CCC[C@H]1C(=O)N[C@@H](CO)C(=O)N[C@@H](CO)C(=O)NCC(=O)N[C@@H](C)C(=O)N1CCC[C@H]1C(=O)N1CCC[C@H]1C(=O)N1CCC[C@H]1C(=O)N[C@@H](CO)C(N)=O)[C@@H](C)CC)[C@@H](C)CC` [Example 342], for which the EC50 was greater than 10100 nM at hGCGR (cAMP, 0.1% bovine casein (no human serum albumin), geometric mean, read-out: hGCGR EC50, nM (SEM, n)); greater than 9950 nM at hGCGR (cAMP, 0.1% bovine casein and 1.0% human serum albumin, geometric mean (SEM, n), read-out: hGCGR EC50, nM (SEM, n)); 0.0105 nM on hGIPR (cAMP, 0.1% bovine casein (no human serum albumin), geometric mean, read-out: hGIPR EC50, nM (SEM, n)); 1.04 nM on hGIPR (cAMP, 0.1% bovine casein and 1.0% human serum albumin, geometric mean (SEM, n), read-out: hGIPR EC50, nM (SEM, n)); 0.191 nM at hGLP-1R (37° C., 0.1% bovine casein (no human serum albumin), geometric mean, read-out: hGLP-1R EC50, nM (SEM, n)); 13.6 nM at hGLP-1R (37° C., 0.1% bovine casein and 1.0% human serum albumin, geometric mean (SEM, n), read-out: hGLP-1R EC50, nM (SEM, n)). Also, the Emax at hGIPR (HEK293, cAMP, 0.1% bovine casein and 1.0% human serum albumin, percent of maximal response to GIP(1-42)NH2, read-out: hGIPR Emax, % ± SEM) amounted to 89.3%; at hGLP-1R (HEK293, cAMP, 37° C., 0.1% bovine casein, read-out: hGLP-1R Emax, % ± SEM), 113%.
Take `CC[C@H](C)[C@H](NC(=O)[C@H](CCCN)NC(=O)[C@H](CC(=O)O)NC(=O)[C@H](CC(C)C)NC(=O)[C@](C)(CC(C)C)NC(=O)[C@@H](NC(=O)[C@](C)(CO)NC(=O)[C@H](Cc1ccncc1)NC(=O)[C@H](CC(=O)O)NC(=O)[C@H](CO)NC(=O)[C@@H](NC(=O)[C@](C)(Cc1ccccc1F)NC(=O)[C@@H](NC(=O)CNC(=O)[C@H](CCC(=O)O)NC(=O)C(C)(C)NC(=O)[C@@H](N)Cc1ccc(O)cc1)[C@@H](C)O)[C@@H](C)O)[C@@H](C)CC)C(=O)N[C@@H](C)C(=O)N[C@@H](CCC(N)=O)C(=O)NC(C)(C)C(=O)N[C@@H](CCC(=O)O)C(=O)N[C@@H](Cc1ccccc1)C(=O)N[C@H](C(=O)N[C@@H](CCCCNC(=O)COCCOCCNC(=O)COCCOCCNC(=O)CC[C@H](NC(=O)CCCCCCCCCOc1ccc(C(=O)O)cc1)C(=O)O)C(=O)N[C@@](C)(Cc1ccc(O)cc1)C(=O)N[C@@H](CC(C)C)C(=O)N[C@H](C(=O)N[C@@H](CCCCNC(=O)COCCOCCNC(=O)COCCOCCNC(=O)CC[C@H](NC(=O)CCCCCCCCCOc1ccc(C(=O)O)cc1)C(=O)O)C(=O)NCC(=O)NCC(=O)N1CCC[C@H]1C(=O)N[C@@H](CO)C(=O)N[C@@H](CO)C(=O)NCC(=O)N[C@@H](C)C(=O)N1CCC[C@H]1C(=O)N1CCC[C@H]1C(=O)N1CCC[C@H]1C(=O)N[C@@H](CO)C(N)=O)[C@@H](C)CC)[C@@H](C)CC` [Example 306]: the EC50 on hGCGR (hGCGR EC50, nM (SEM, n), 0.1% bovine casein and 1.0% human serum albumin, geometric mean) is greater than 9950 nM; at hGCGR (hGCGR EC50, nM (SEM, n), cAMP, 0.1% bovine casein (no human serum albumin), geometric mean), greater than 9950 nM; on hGIPR (hGIPR EC50, nM (SEM, n), 0.1% bovine casein and 1.0% human serum albumin, geometric mean) it was 1.12 nM; at hGIPR (hGIPR EC50, nM (SEM, n), cAMP, 0.1% bovine casein (no human serum albumin), geometric mean), 0.0227 nM; on hGLP-1R (hGLP-1R EC50, nM (SEM, n), 37° C., 0.1% bovine casein (no human serum albumin), geometric mean) it was 0.414 nM. The Emax at hGLP-1R (HEK293, read-out: hGLP-1R Emax, % ± SEM, cAMP, 37° C., 0.1% bovine casein) is 105%.

For the origin of these results see patent US20230265151A1, “GIP/GLP1 CO-AGONIST COMPOUNDS” (priority 2020, published 2023).
